{"source": "patent US8383128B2", "about": "“Method of protecting plant(s) and a process thereof” (priority 2008, dated 2013)", "system": "Helicoverpa armigera larvae (third instar)", "test": "Bioassay of meroterpenoid using H. armigera larvae (cotton leaf dip feeding)", "format": "in vivo", "details": "for Mortality (%) / Survival (%): treated cotton leaves, recorded up to 6 days", "source_text": "The cotton Bollworm, Helicoverpa armigera is considered as one of the major threats to present day intensive agriculture. […] Cotton leaves were surface sterilized with 0.5% sodium hypochlorite, rinsed in sterile water and shade dried. The leaves were dipped in respective concentration of the insecticide for 30 seconds and then they were drained and dried at room temperature. The turgidity was maintained by surrounding the petiole with cotton wool saturated with water. The petioles of the leaves with cotton swab were kept immersed in water and were used control. The entire setup was kept enclosed in mylar film cage and Helicoverpa armigera larvae (third instar) of 30-40 milligrams weight were allowed to feed. Mortality rate was recorded at 24 hours intervals up to 6 days."}
{"smiles": "COc1ccc(-c2cc3c(c(=O)o2)C[C@@]2(O)[C@@]4(C)C(=O)[C@@]5(OC)C(=O)O[C@]4(CC[C@@]2(C)O3)C5(C)C)cc1", "note": "[Terreulactone A, terreulactone A]", "values": [{"measurement": "Mortality (%)", "setting": "2.5 μg terreulactone A", "value": 52.5, "unit": "%"}, {"measurement": "Survival (%)", "setting": "2.5 μg terreulactone A", "value": 47.5, "unit": "%"}, {"measurement": "Mortality (%)", "setting": "5.0 μg terreulactone A", "value": 62.5, "unit": "%"}, {"measurement": "Survival (%)", "setting": "5.0 μg terreulactone A", "value": 37.5, "unit": "%"}, {"measurement": "Mortality (%)", "setting": "10 μg terreulactone A", "value": 82.5, "unit": "%"}, {"measurement": "Survival (%)", "setting": "10 μg terreulactone A", "value": 17.5, "unit": "%"}, {"measurement": "mortality rate of the larval pests (in words)", "setting": "larval pests fed on treated plant or plant parts", "value": "increased the mortality rate"}]}
